What all share (type): binding, rabbit
Assay [1] relates to antiserum to homocystamide-LDL adduct. Kind of assay: competition ELISA with antiserum (1:700), solid phase homocystamide-LDL adduct. Particulars: competitor against solid phase homocystamide-LDL adduct. A general note: An ELISA detects its analyte on a solid surface through an enzyme-linked reagent.
Description: Antiserum obtained as described in FIG. 1 was added to Millipore 96-well plates containing pre-adsorbed homocystamide-LDL adduct (100 μl, 10 μg/ml) at a limiting dilution (1:700) in the indicated concentrations of competitors (●, homocystamide-LDL adduct, ∘, native LDL, □, acetylated LDL, ▴, methylated LDL, ▪, methylated LDL treated with homocysteine thiolactone). Following a 12 hour incubation, antibody bound was quantified as described in FIG. 2. […] This experiment is representative of 3 independent experiments. (n=3 for each data point. Data points are the mean±SEM).
Antiserum obtained as described in FIG. 1 was added to Millipore 96-well plates containing pre-adsorbed homocystamide-LDL adduct (100 μl, 10 μg/ml) at a limiting dilution (1:700) in the indicated concentrations of competitors (●, Cu^2+-oxidized homocystamide-LDL adduct, ▪, Cu^2+-oxidized LDL, ▴, homocysteine). Following a 12 hour incubation, antibody bound was quantified as described in FIG. 1. […] This experiment is representative of 3 independent experiments. (n=3 for each data point. Data points are the mean±SEM).
Antiserum obtained as described in FIG. 1 was added to Millipore 96-well plates containing pre-adsorbed homocystamide-LDL adduct (100 μl, 10 μg/ml) at a limiting dilution (1:700) in the indicated concentrations of competitors (▴, ●, ▪, homocystamide-LDL, -HDL, and -lipoprotein-deficient serum proteins isolated from homocysteine thiolactone-treated plasma, and freshly drawn plasma without homocysteine thiolactone treatment, Δ). Following a 12 hour incubation, antibody bound following a 2-hour incubation, antibody bound was quantified as described in FIG. 1 using horseradish peroxidase-linked goat-anti-rabbit IgG (heavy and light chains). […] (n=4 for each data point. Data points are the mean±SEM). […] (This experiment is representative of 3 independent experiments. Data points are the mean of duplicate measurements.)
Briefly, 96-well plates were initially coated with homocystamide-LDL adduct (100 μl, 10 μg/ml). […] Immunoglobulin classes were determined using goat-anti-rabbit-μ-chain-specific, -heavy chain specific, and -heavy and light chain specific secondary antibodies that were linked to horseradish peroxidase. In order to determine antibody specificity, competition experiments were employed, using a limiting dilution (1:300) of purified antibody. Horseradish peroxidase-labeled goat-anti rabbit (heavy and light chain-specific) was used as a substrate, and the reaction was quenched by the addition of H2SO4 (100 μl, 1.8 M). The absorbance was measured at 450 nm in a 96-well plate reader.
Homocysteine thiolactone-treated LDL (10 μg/ml) was coated onto 96-well plates.
The subject of assay [2] is purified polyclonal antibody directed against the homocystamide adduct. Put plainly: competition ELISA with purified polyclonal antibody (1:300), solid phase homocystamide-LDL adduct. The conditions noted are these: for IC50 values, D,L- versus L-homocystamide-BSA compared: competitor 0-500 μg/ml, P>0.05, data not shown. On the procedure: Solid phase ELISA techniques for antibody characterization. Solid phase indirect antibody capture techniques were used in all assays and have been described elsewhere (10, 34). Briefly, 96-well plates were initially coated with homocystamide-LDL adduct (100 μl, 10 μg/ml). For antibody titer determinations, the antisera were diluted at concentrations as indicated in the “Results” section. We defined antibody titers as the inverse of the greatest serum dilution in which a significant difference (p<0.05) between the percentage antibody bound from the antiserum and the pre-immune serum was observed. Immunoglobulin classes were determined using goat-anti-rabbit-μ-chain-specific, -heavy chain specific, and -heavy and light chain specific secondary antibodies that were linked to horseradish peroxidase. In order to determine antibody specificity, competition experiments were employed, using a limiting dilution (1:300) of purified antibody. Horseradish peroxidase-labeled goat-anti rabbit (heavy and light chain-specific) was used as a […], and the reaction was quenched by the addition of H2SO4 (100 μl, 1.8 M). The absorbance was measured at 450 nm in a 96-well plate reader.
Purification of antiserum. Polyclonal rabbit-anti-homocystamide antiserum was obtained following the 4th immunization of New Zealand White rabbits with homologous homocystamide-LDL adduct (0.5 mg in Freund's adjuvant) as described previously (34). A saturated solution of ammonium sulfate was added dropwise to the antiserum while stirring until the solution was 25% saturated with ammonium sulfate. This mixture was incubated overnight at 4° C. The mixture was centrifuged, and pellet was discarded. Ammonium sulfate was added to the supernatant while stirring until the final concentration of the solution was 50% ammonium sulfate. This mixture was incubated overnight at 4° C. The mixture was centrifuged, and the supernatant was discarded. The pellet was brought up in and dialyzed against Tris (10 mM, pH 7.5). […]

Assay [3] addresses purified polyclonal anti-homocystamide adduct antibody. Kind of assay: competition ELISA with purified polyclonal antibody (1:400), plates coated with homocystamide-BSA adduct. On the procedure: Microtiter plate preparation. BSA (10 mg/ml in 1M borate, pH 8.4) was incubated for 6 hours at 25° C. in the presence of homocysteine thiolactone (50 mM). Following incubation, excess homocysteine thiolactone was removed by passing the sample down a column pre-equilibrated with NaCO3 (100 mM, pH 9.6). Homocystamide-BSA adduct was diluted to 5 μg/ml in NaCO3 (100 mM, pH 9.6), and 200 μl/well was added to polystyrene microtiter plates (11). These plates were incubated overnight at 4° C., rinsed in PBS, and either used immediately or covered and stored in PBS for future use.
Preparation of a standard curve. In order to prepare a standard curve of known homocysteine concentrations, the indicated concentrations of homocysteine were incubated in the presence of HCl (6N) and heated at 60° C. for 2 hours. […] These solutions were used in a competitive antibody binding assays in parallel with “test solutions” that were analyzed for homocysteine concentrations.
Immunoassay. […] The reactions were quenched after 30 minutes by the addition of H2SO4 (1.8N) and read at 450 nm. […]
Determination of antibody specificity. Antibody specificity for homocystamide-BSA adduct was determined. […] Results of antibody binding are expressed as B/B0, in which B is the % antibody binding in the presence of competitor, and B0 is the % antibody binding in the absence of competitor. […]

Assay [4] concerns antiserum to homocystamide-LDL adduct. Put plainly: solid phase ELISA serum dilution curve on homocystamide adducts of other proteins. Particulars: protein coated on solid phase. On the procedure: Solid phase ELISA techniques for antibody characterization. Solid phase indirect antibody capture techniques were used in all assays and have been described elsewhere (10, 34). Briefly, 96-well plates were initially coated with homocystamide-LDL adduct (100 μl, 10 μg/ml). For antibody titer determinations, the antisera were diluted at concentrations as indicated in the “Results” section. We defined antibody titers as the inverse of the greatest serum dilution in which a significant difference (p<0.05) between the percentage antibody bound from the antiserum and the pre-immune serum was observed. Immunoglobulin classes were determined using goat-anti-rabbit-μ-chain-specific, -heavy chain specific, and -heavy and light chain specific secondary antibodies that were linked to horseradish peroxidase. In order to determine antibody specificity, competition experiments were employed, using a limiting dilution (1:300) of purified antibody. […] The absorbance was measured at 450 nm in a 96-well plate reader.
We sought to determine whether or not homocystamide adducts of other proteins could also be used in order to measure antibody titers. […] This curve resembled the serum dilution curve obtained in FIG. 4, as the antiserum recognized both homocystamide-BSA and homocystamide-hemoglogin adduct, indicated by antiserum dilution-dependent increase in the absorbance at 450 nm.

“Also recorded” adds a separate entry of the source.

The text below walks through data of patent publication US6589751B2, “Immonological detection of the homocystamide adduct and a thiolactone immunoassay for endogeneous homocysteine” (MCW Research Foundation, priority 1997, dated 2003).

On to `N[C@@H](CCS)C(=O)O` [homocysteine], for which the “competition for binding to the antiserum (dose-dependent decrease in %B/B0)” value was “Neither homocysteine, homocystine (homocysteine disulfide), nor Cu^2+-oxidized LDL competed for binding” in assay [1] and “did not compete for binding” in assay [1] (listed as free homocysteine).

`N[C@@H](CCSSCC[C@H](N)C(=O)O)C(=O)O` [homocystine]: the “competition / recognition by purified polyclonal antibody” value in assay [2] (purified polyclonal antibody 1:300, solid phase homocystamide-LDL) is “much less affinity than protein-homocystamide adducts; also recorded: recognized, however with much lower affinity”. Also, the “competition for binding to the antiserum (dose-dependent decrease in %B/B0)” value in assay [1] is “neither BSA nor homocysteine disulfide (homocystine) were recognized; also recorded: Neither homocysteine, homocystine (homocysteine disulfide), nor Cu^2+-oxidized LDL competed for binding”.

“D,L-homocystamide-BSA: BSA incubated with D,L Homocysteine thiolactone”: in assay [2], the “IC50 values, D,L- versus L-homocystamide-BSA compared” value is listed as “not significantly different”.

Take “L-homocystamide-BSA: BSA incubated with L-homocysteine thiolactone”: the “IC50 values, D,L- versus L-homocystamide-BSA compared” value in assay [2] was “not significantly different”.

As for “homocystamide-BSA adduct: BSA treated with homocysteine thiolactone; printed as BSA in the IC50 sentence of b114”, the “IC50, inhibition of antibody binding (B/B0)” value in assay [3] is given as “approximately 200 μg/ml”. In addition, the “recognition by the antiserum (dilution-dependent increase in absorbance at 450 nm)” value in assay [4] is recorded as “recognized”.
